Test results as given in a compilation of properties of binary mixtures (doi:10.1016/j.molliq.2012.11.030).

Experiment: xn = mol fraction of the nth substance listed
Conditions: 298.15 K, 101 kPa

CC(=O)[O-].CC[NH3+] + O
Conditions | electrical conductivity [S/m]
x1 = 0.003 | 0.782
x1 = 0.0103 | 1.89
x2 = 0 | 0.222
x2 = 0.2027 | 0.452
x2 = 0.3481 | 0.745
x2 = 0.7999 | 2.48
x2 = 0.8502 | 2.75
x2 = 0.9436 | 3.1
x2 = 0.9502 | 3.11
x2 = 0.96 | 3.08
x2 = 0.9685 | 2.9
x2 = 0.9799 | 2.65
